Data reported in US8470855B2, “Dual-use peptidase inhibitors as prodrugs for a therapy of inflammatory and other diseases” (IMTM GmbH, priority 2005, dated 2013).

What was measured:
[1] = target: T1, APN (Leucin aminopeptidase, microsomal, EC 3.4.11.2) (Sus scrofa, UniProt P15145); assay: IC50 determination against APN after reduction of the prodrugs with DTT; type: biochemical; details: after release (reduction with DTT) of the inhibitors from the prodrugs; pig kidney enzyme, substrate Leu-AMC, pH 7.2, 30° C.; read-out: APN (IC 50 [M])
T1 construct: purchased Sigma; host or cells: pig kidney (tissue-derived)
T1 sequence (P15145 1-963): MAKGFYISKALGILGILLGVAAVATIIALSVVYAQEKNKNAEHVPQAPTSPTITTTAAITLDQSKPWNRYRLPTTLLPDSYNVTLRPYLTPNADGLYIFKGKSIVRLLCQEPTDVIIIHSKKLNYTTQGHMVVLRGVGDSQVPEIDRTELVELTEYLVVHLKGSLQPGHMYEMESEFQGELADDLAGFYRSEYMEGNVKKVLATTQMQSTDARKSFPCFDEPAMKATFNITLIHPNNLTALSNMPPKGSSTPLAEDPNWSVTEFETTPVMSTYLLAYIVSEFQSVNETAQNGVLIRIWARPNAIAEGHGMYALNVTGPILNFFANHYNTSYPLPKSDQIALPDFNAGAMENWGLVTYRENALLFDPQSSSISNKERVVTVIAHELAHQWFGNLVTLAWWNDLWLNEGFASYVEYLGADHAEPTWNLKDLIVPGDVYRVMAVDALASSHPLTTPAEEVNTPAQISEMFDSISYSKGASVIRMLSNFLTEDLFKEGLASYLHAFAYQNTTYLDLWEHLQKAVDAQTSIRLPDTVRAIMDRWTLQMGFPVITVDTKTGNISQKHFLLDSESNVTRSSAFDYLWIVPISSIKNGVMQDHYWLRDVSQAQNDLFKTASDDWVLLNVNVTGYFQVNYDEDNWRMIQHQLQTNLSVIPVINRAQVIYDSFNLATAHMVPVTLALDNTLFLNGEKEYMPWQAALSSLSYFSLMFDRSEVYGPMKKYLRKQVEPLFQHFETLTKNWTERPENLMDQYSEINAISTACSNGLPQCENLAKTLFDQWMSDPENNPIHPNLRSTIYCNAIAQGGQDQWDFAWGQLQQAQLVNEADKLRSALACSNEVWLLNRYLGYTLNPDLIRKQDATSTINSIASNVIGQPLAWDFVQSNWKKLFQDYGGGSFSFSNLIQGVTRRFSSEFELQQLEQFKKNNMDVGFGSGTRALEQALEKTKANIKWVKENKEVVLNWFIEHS
Method: (§1) Process of the Reduction with DTT:
(§2) Same volumes of the 7·10^−2 M solution of the inhibitor in water or DMF and a 0.35 M aqueous DTT-solution (5 equivalents) were agitated 4 hours at RT.
(§3) Subsequently to the reductive treatment of the prodrugs the IC50-values were estimated using the following process:
(§4) Determination of the IC50-Values after Reduction:
Leucin aminopeptidase, microsomal, from pig kidney (EC 3.4.11.2).
Suspension in 3.5 M (NH4)2SO4-solution (Sigma).
Substrate: Leu-AMC, [S]=1.5·10^−4 M (2 Km) in the reaction batch.
Buffer: 40 mM Tris/HCl-buffer, pH 7.2 in the reaction batch. […]
(§5) 60 μl of these inhibitor solutions each or water (standard), were incubated with 80 μl of the according diluted enzymes in buffer for 15 minutes at 30° C. and subsequently 60 μl of the according AMC-substrate in water (total volume 200 μl) were added. The release of the 7-Amino-4-methyl-cumarin was traced continuously over a period of 20 minutes at 30° C. using a fluorence-pladt-reader NOVOstar (BMG Labtechnologies). The enzyme concentration was chosen to give a linear increase of the fluorescence during the measuring period.
The excitation- and emission-wavelengths, respectively, were 390 and 460 nm. […] The turn-over rates (increase of fluorescence/minutes) were plotted against the concentration of the inhibitor and the IC50-values were calculated using the computer program GraFit. […]

[2] = target: T2, Dipeptidyl peptidase IV (EC 3.4.14.5.) (Sus scrofa, UniProt P22411); assay: IC50 determination against DP IV after reduction of the prodrugs with DTT; type: biochemical; details: after release (reduction with DTT) of the inhibitors from the prodrugs; pig kidney enzyme, substrate Ala-Pro-AMC, pH 7.6, 30° C.; read-out: DP IV (IC 50 [M])
T2 construct: purchased Sigma; host or cells: pig kidney (tissue-derived)
Method: as §1, §2, §3, §4
Dipeptidyl peptidase IV from pig kidney (EC 3.4.14.5.), lyophilisated powder (Sigma).
Substrate: Ala-Pro-AMC, [S]=3·10^−5 M (2 Km) in the reaction batch.
Buffer: 40 mM Tris/HCl-buffer, pH 7.6, I=0.125 in the reaction batch.
By dilution with water 10 to 12 solutions with defined inhibitor concentration were prepared from the reduction batch. These were selected from a relevant concentration range, i.e. between complete inhibition and non-influenced enzyme activity.
as §5, with “period. […]” for “period.”

T2 sequence (P22411 whole entry): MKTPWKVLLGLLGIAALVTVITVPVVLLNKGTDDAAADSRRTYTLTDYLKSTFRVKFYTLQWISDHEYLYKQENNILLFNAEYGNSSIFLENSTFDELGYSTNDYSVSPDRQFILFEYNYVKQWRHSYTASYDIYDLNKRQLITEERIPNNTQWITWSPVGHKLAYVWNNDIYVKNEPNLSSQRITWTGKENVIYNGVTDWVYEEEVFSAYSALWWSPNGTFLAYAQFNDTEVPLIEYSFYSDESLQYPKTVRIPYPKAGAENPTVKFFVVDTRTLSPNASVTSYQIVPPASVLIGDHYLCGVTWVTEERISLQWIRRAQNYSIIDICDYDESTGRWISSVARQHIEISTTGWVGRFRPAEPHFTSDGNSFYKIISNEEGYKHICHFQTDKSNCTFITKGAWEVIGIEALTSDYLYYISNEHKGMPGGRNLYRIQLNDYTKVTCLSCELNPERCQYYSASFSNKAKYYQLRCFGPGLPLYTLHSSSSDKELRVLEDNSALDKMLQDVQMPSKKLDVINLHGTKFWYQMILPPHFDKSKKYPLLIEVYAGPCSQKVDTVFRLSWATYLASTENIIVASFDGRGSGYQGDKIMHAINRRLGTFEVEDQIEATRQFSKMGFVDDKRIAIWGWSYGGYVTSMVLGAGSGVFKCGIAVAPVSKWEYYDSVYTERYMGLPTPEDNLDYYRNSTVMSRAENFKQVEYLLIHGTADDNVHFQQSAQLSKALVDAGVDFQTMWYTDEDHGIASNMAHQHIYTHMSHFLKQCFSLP

Structure (SMILES) | IC50 [1] | IC50 [2]
CCCCC[C@H](CC(=O)NO)C(=O)N[C@H](C(=O)N1CCC[C@H]1CO)C(C)C [Actinonine, actinonine] | 3.02e-07 M | –
NC(CCCCNC(=O)OCc1ccc([N+](=O)[O-])cc1)C(=O)N1CCSC1 (centres unmarked) [Lys[Z(NO2)]-thiazolidide, H-Lys[Z(NO2)]-thiazolidide] | – | 4.34e-07 M
